#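 48-hour exposure; five concentrations; linearly interpolated endpoints. TGI is the concentration that stops growth completely.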
# Key:
# Assay in all cases: NCI tumour cell line growth inhibition, 48 h
# HCT-116 colon = tested on: HCT-116 colon
# HOP-62 NSCLC = tested on: HOP-62 NSCLC
# NCI-H226 lung = tested on: NCI-H226 lung
# RXF 393 renal = tested on: RXF 393 renal
# DU-145 prostate = tested on: DU-145 prostate
# NCI-H23 lung = tested on: NCI-H23 lung
# SF-539 CNS = tested on: SF-539 CNS
# SF-295 CNS = tested on: SF-295 CNS
# MDA-MB-231 breast = tested on: MDA-MB-231 breast
# OVCAR-4 ovarian = tested on: OVCAR-4 ovarian
# NCI/ADR-RES ovarian = tested on: NCI/ADR-RES ovarian
# OVCAR-8 ovarian = tested on: OVCAR-8 ovarian
# SN12C renal = tested on: SN12C renal
SMILES,TGI (HCT-116 colon) [µM],TGI (HOP-62 NSCLC) [µM],TGI (NCI-H226 lung) [µM],TGI (RXF 393 renal) [µM],TGI (DU-145 prostate) [µM],TGI (NCI-H23 lung) [µM],TGI (SF-539 CNS) [µM],TGI (SF-295 CNS) [µM],TGI (MDA-MB-231 breast) [µM],TGI (OVCAR-4 ovarian) [µM],TGI (NCI/ADR-RES ovarian) [µM],TGI (OVCAR-8 ovarian) [µM],TGI (SN12C renal) [µM]
CS(=O)(=O)OCCN(CCOS(C)(=O)=O)c1ccc(C=Nc2cccc(Cl)c2)cc1,> 100,> 100,11,> 100,> 100,10.6,27.3,28.9,48.6,> 63.6,27.3,> 100,27.8
CCOC(=O)c1c(N=P(c2ccccc2)(c2ccccc2)c2ccccc2)nnc(-c2ccccc2)c1-c1ccccc1,> 100,> 100,> 100,> 100,> 100,> 100,> 100,> 100,> 100,> 100,> 100,> 100,> 100
CC1(C)OC2[C@@H](CO[C@@]3([C@@H](O)CCO)OC(C)(C)O[C@@H]23)O1 (stereo partly drawn),> 100,> 100,> 100,> 100,> 100,> 100,> 100,> 100,> 100,> 100,> 100,> 100,> 100
C/C(=N\N=C(\N)SB(F)F)c1ccc2ccccc2c1,> 100,,> 100,> 100,> 100,> 100,> 100,> 100,> 100,> 100,> 100,> 100,> 100
Cn1c2ccccc2c2c3c(c4c5ccccc5n(C)c4c21)C(=O)NC3=O,> 100,> 55.8,> 100,> 22.1,> 100,> 100,35.4,> 76.5,> 52.7,28.6,> 100,> 100,> 100
COC(CN(C(C)=O)C1CCC2(SCCS2)c2[nH]c3ccccc3c21)OC (stereo not drawn),> 100,> 100,> 100,> 100,> 100,> 100,> 100,,> 100,> 100,> 100,> 100,> 100
c1ccc(C(NCC2CCO2)(c2ccccc2)c2ccccc2)cc1 (stereo not drawn),56,,26.6,35,71.3,30.9,33.6,28.9,70.1,30.2,28.9,26.6,51.3
O=C(OC1C2OC(=O)c3cc(O)c(O)c(O)c3Oc3cc4c(c(O)c3O)-c3c(cc(O)c(O)c3O)C(=O)OCC3OC(O)C(OC(=O)c5cc(O)c(O)c(O)c5Oc5cc6c(c(O)c5O)-c5c(cc(O)c(O)c5O)C(=O)OC1C(COC6=O)OC2O)C(OC(=O)c1cc(O)c(O)c(O)c1)C3OC4=O)c1cc(O)c(O)c(O)c1 (stereo not drawn),57.2,54.3,> 100,52.5,> 100,62.6,65.6,57.5,68.4,47.8,> 100,81.3,> 100
CCN1CCC(O)(c2ccc(Oc3ccc(F)cc3)cc2)C(C(=O)c2ccc(Oc3ccc(F)cc3)cc2)C1 (stereo not drawn),27.4,30.1,29.5,25.8,24.7,28,33.2,29.3,26.6,29,30.1,30.7,27.5
O=C1/C(=C\c2cccc(Oc3ccccc3)c2)SC(c2ccccc2)N1c1ccccc1 (stereo not drawn),> 100,> 100,> 100,> 100,> 100,> 100,93.6,> 100,> 100,> 100,> 100,> 100,> 100
CCOC(=O)C1=C(O)C2C3CC4C2C(O)=C(C(=O)OCC)C2C1C3C42 (stereo not drawn),> 100,> 100,> 100,> 100,> 100,> 100,> 100,> 100,> 100,> 100,35.2,> 100,> 100
COc1c(/C=C/C(C)(C)O)cc(C2CC(=O)c3c(O)cc(O)cc3O2)cc1CC=C(C)C (stereo not drawn),18.4,,17.8,15.3,17.4,18.3,17.4,14.8,15.1,24.6,32,23.1,14.3
COC(=O)c1ccc(/C=C2\Oc3ccccc3C2=O)cc1,> 100,> 100,> 100,> 100,> 100,> 100,> 100,> 100,> 100,> 100,> 100,> 100,> 100
O=C(/C=C/c1ccc(-c2ccccc2)cc1)NCc1ccc(C(=O)NCc2ccccc2)cc1,> 100,> 100,> 100,67.3,> 100,> 100,> 100,> 100,> 100,> 100,> 100,> 100,> 100
O=C(O)C(O)C(O)C(=O)O (stereo not drawn),> 100,> 100,> 100,> 100,> 100,,> 100,> 100,> 100,> 100,> 100,> 100,> 100
O=C(O)CCS/C(=C\C(SCCC(=O)O)c1ccc(Cl)cc1)c1ccc(Cl)cc1 (stereo not drawn),57.5,> 100,> 100,> 100,> 100,> 100,> 100,> 100,> 100,> 100,> 100,> 100,> 100
COc1ccc(-n2c(N)c(C#N)[nH]c2=O)cc1,> 10,> 10,> 10,> 10,> 10,> 10,> 10,7.91,> 10,> 10,> 10,> 10,> 10

SMILES,TGI (HCT-116 colon) [µM],TGI (HOP-62 NSCLC) [µM],TGI (NCI-H226 lung) [µM],TGI (RXF 393 renal) [µM],TGI (DU-145 prostate) [µM],TGI (NCI-H23 lung) [µM],TGI (SF-539 CNS) [µM],TGI (SF-295 CNS) [µM],TGI (MDA-MB-231 breast) [µM],TGI (OVCAR-4 ovarian) [µM],TGI (NCI/ADR-RES ovarian) [µM],TGI (OVCAR-8 ovarian) [µM],TGI (SN12C renal) [µM]
Cc1ccc(/C=N/n2c(-c3ccc(C)cc3)n[nH]c2=O)cc1,> 100,> 100,> 100,72.9,> 100,> 100,> 100,> 100,> 100,> 100,> 100,> 100,> 100
COc1cc2c(cc1OC)C(=O)N(c1ccc(O)cc1)C2=O,> 100,> 100,> 100,> 100,> 100,> 100,> 100,> 100,> 100,> 100,> 100,> 100,> 100
C=CCC1CC(n2cc(C)c(=O)[nH]c2=O)OC1CO[Si](C)(C)C(C)(C)C (stereo not drawn),24.6,34.7,28.4,15.9,31.1,27.1,28.3,40,28.9,28.5,31.5,28.5,29.1
CC(C)(C)OC(=O)NC1CC2(C=C(Br)C(=O)C(Br)=C2)OC1=O (stereo not drawn),9.21,36.8,40.6,11.8,26.4,22,42.5,38.9,32.6,24.1,34.8,21.4,18.5
CC1=NC2=Nc3nc(C)cc[n+]3CN2C=C1,> 100,> 100,> 100,> 100,> 100,> 100,> 100,> 100,> 100,> 100,> 100,> 100,> 100
CC(NC(=O)NC(C)(C)C)NC(=O)C(N)CC(=O)O (stereo not drawn),> 100,> 100,> 100,> 100,> 100,> 100,> 100,> 100,> 100,> 100,> 100,> 100,> 100
C=C1C(=O)O[C@H]2C[C@@]3(COC(C)=O)C=COC=C(COC(=O)C(C)C)C3CC12 (stereo partly drawn),> 100,> 100,> 100,> 100,> 100,> 100,> 100,> 100,> 100,,> 100,> 100,> 100
Cc1ccc2c(c1)C(=O)c1nc(C)ccc1C2=O,60.6,> 100,> 100,> 100,> 100,56.7,> 100,> 100,62.1,89,59.1,97.5,87.9
NC(=O)N/N=C(/CC1C(=O)Oc2ccccc21)c1ccccc1O (stereo not drawn),> 100,> 100,82.5,> 100,> 100,> 100,91.1,> 100,> 100,> 100,98.2,> 100,> 100
CC(=O)OC12C3C4C1C1C2C3C41OC(C)=O (stereo not drawn),> 100,> 100,> 100,> 100,> 100,> 100,> 100,> 100,> 100,> 100,> 100,> 100,> 100
O=C(O)CCC(=O)c1ccc2c(c1)C(C(=O)O)CC2 (stereo not drawn),2.25,> 100,> 100,23.1,> 100,> 100,> 100,> 100,> 100,> 100,> 100,> 100,> 100
CC(=N\N)/C(C)=N/N=C(C)/C(C)=N/N,> 100,> 100,> 100,> 100,> 100,> 100,> 100,> 100,> 100,> 100,> 100,> 100,> 100
COc1ccc(C2OC(=O)c3ccc4ccccc4c32)c(C)c1 (stereo not drawn),> 45.7,> 90.2,56.9,> 65.9,> 100,41.8,40.5,14.7,> 100,> 100,5.61,56.5,> 100
Cc1ccccc1OC(C)C(=O)NN1C(=O)CSC1c1ccc(Cl)cc1 (stereo not drawn),> 95.5,51.2,> 82.6,> 86.9,> 100,> 100,> 63.1,> 61.3,86,> 100,> 100,> 100,35.3
Cc1ccc(SC2C(=O)C3CC(OCc4ccccc4)C2(C)C3(C)C)cc1 (stereo not drawn),> 100,> 100,> 100,> 100,> 100,> 100,> 100,> 100,> 100,,> 100,> 100,> 100
O=C(NCCN1CCOCC1)c1cn2c(ccc3sc4ccccc4c(=O)c32)n1,29,> 100,> 100,> 100,> 100,> 100,> 100,44.9,> 100,,> 100,> 100,> 100
[N-]=[N+]=NC1OC(=O)C(Cl)=C1N=P(c1ccccc1)(c1ccccc1)c1ccccc1 (stereo not drawn),> 10,> 10,> 10,> 10,> 10,,> 10,> 10,> 10,> 10,> 10,> 10,> 10

# Source: PubChem BioAssay (NCI)
